Assay results reported in patent US20110065787A1, “THERAPEUTIC AGENT FOR MALE STERILITY” (SBI ALApromo., Ltd., priority 2008, published 2011).
“Also recorded” adds a separate entry of the source.

How the values were obtained:
[1] = test system: male rats (Slc:Wistar); experiment: Crossing test: conception rate of copulated animals (Example 2); type: in vivo, rat
Experimental: Forty 10 week-old male rats (Slc:Wistar) and forty 9 week-old female rats were obtained, quarantined for 7 days, and were habituated and bred for 13 days. δ-amino levulinic acid (herein after referred to as ALA) phosphate was weighed, dissolved into injection solvent to prepare a 50 mg/mL solution.
After day 15 from administration of Example 1, crossing period was set as 14 days, and 1 female was housed per 1 male in the control group and in the 500 mg/kg-group.

[2] = test system: male rats (Slc:Wistar); experiment: Organ weights at autopsy of male rats after repeated oral administration (Example 1); conditions: 500 mg/kg oral once a day, compared to the control group, FIG. 1
[3] = test system: healthy volunteers, married men; experiment: Subjective estimation of erectile effect in healthy volunteers (Example 3); type: in vivo, human
Experimental: 1 g of ALA hydrochloride was dissolved into 50 mL of 5% glucose aqueous solution (test solution), and administered to 7 healthy volunteers, married men from 28 to 44 years old. They ingested orally the test solution (13.9 to 22.2 mg/kg) without taking breakfast.

[4] = 1 g oral in 5% glucose solution (13.9 to 22.2 mg/kg), one line per volunteer 1-7, hydrochloride

## NCC(=O)CCC(=O)O.O=P(O)(O)O [ALA phosphate, δ-amino levulinic acid phosphate]
[1]; 500 mg/kg-group, control 16 out of 20
  conception succeeded (number of rats): 17 out of 19
[1]; male rats 500 mg/kg oral once a day, crossing period 14 days after day 15, control group 80.0%
  conception rate of copulated animals: 94.4%
[2]
  net weight of seminal vesicle: significant high level
  weight volume ratio to the body weight of seminal vesicle: significant high level

## Cl.NCC(=O)CCC(=O)O [ALA hydrochloride, δ-amino levulinic acid hydrochloride]
[3]; [4]
  Note (sexual intercourse, pregnancy): pregnant; also recorded: No sexual intercourse; also recorded: No sexual intercourse,
  Result (erectile, individual subjective estimation): Δ (when no change is observed by (Δ))
[3]; 1 g oral, 7 healthy volunteers
  volunteers in whom erectile was observed on that night: 5 out of 7
[3]; 1 g oral, among the volunteers with erectile
  volunteers who had sexual intercourse, and pregnancy was confirmed: 2
